Like-named read-outs stand apart in the source and are kept apart here.
Experiments:
[1] = system: HBL1 cells; assay: CellTiter-Glo assay of cellular ATP levels in HBL1 cells (16 h); type: cell-based
Description: (§1) Cell Culture Methods: Cells (HBL1, immortalized fibroblasts from a healthy donor, or 293T) were seeded at the numbers indicated in a 12-well plate in 500 ul. […] Human embryonic kidney HEK293T cells and immortalized fibroblasts were maintained in DMEM (Gibco) supplemented with 10% fetal bovine serum (Hyclone), 2 mmol/L L-glutamine, Hepes (Gibco), and 100 U/mL penicillin/streptomycin (Invitrogen). The lymphoma cell line HBL1 was maintained in RPMI (Life Technology) supplemented with 5% fetal bovine serum (Hyclone), 2 mmol/L 1-glutamine, Hepes (Gibco), and 100 U/mL penicillin/streptomycin (Invitrogen). Cells were cultured in incubators maintained at 37° C., with 5% CO2 and 85% humidity.
(§2) Cell-Titer-Glo viability assays: Five μL of cells (2500 cells) from the 12-well plate culture were plated into white 1536-well plates (Greiner, Monroe, NC, 789173-F) in 6 replicates. CellTiter-Glo Luminescent Cell Viability Assay (CTG) (Promega, G7572), 2.5 μL/well reagent was added with a BioRAPTR FRD (Beckman Coulter, Sykesville, MD), plates were incubated in the dark at ambient temperature for 10 min, and luminescence measured with a ViewLux 1430 Ultra HTS (Perkin Elmer, Waltham, MA).

[2] = system: MTX-resistant HBL1 cell line; type: cell-based
Description: as §2, with “CellTiter-Glo” for “Cell-Titer-Glo”

[3] = system: HBL1 cell line; assay: CellTiter-Glo cell viability (cytotox), HBL1 cell line, 72 hours; type: cell-based
Description: as §2, with “CellTiter-Glo” for “Cell-Titer-Glo”

[4] = system: fibroblasts; assay: CellTiter-Glo ATP levels in fibroblasts; type: cell-based
Description: as §1, §2

[5] = system: 293T cells; assay: CellTiter-Glo ATP levels in 293T cells; type: cell-based, human
Description: as §1, §2

[6] = target: T1, human DHFR-HiBiT fusion protein (Homo sapiens, UniProt P00374); assay: DHFR-HiBiT assay (high-throughput DHFR abundance) in HBL1 cells; type: cell-based; conditions: for Dmax: % change in untreated cellular DHFR level (control), negative = degradation, positive = stabilization, HBL1, 24 h, read-out: efficacy (%)
T1 construct: expressed in transfected cells; host or cells: HBL1 cells retrovirally infected with pBMN-Ires-Lyt-2 carrying DHFR-HiBiT
T1 sequence (P00374 with tags, fused parts or gaps): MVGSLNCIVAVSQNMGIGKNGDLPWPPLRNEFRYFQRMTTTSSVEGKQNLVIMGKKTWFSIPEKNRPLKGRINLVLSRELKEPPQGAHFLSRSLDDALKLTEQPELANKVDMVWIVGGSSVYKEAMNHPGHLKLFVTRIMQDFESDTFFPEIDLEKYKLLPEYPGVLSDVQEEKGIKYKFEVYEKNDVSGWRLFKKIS
Source text: The human DHFR-HiBiT construct was synthetized (Bio Basic) and cloned into the retroviral vector pBMN-Ires-Lyt-2 (provided by G. Nolan, Stanford University, Stanford, CA) which expresses the coding region of mouse CD8a (Lyt-2) using the restriction sites BamHI/XhoI. All constructs were sequenced to validate authenticity. Infected cells were positively selected based on murine CD8a expression using magnetic beads (Miltenyi Biotech).
Cell culture: Human embryonic kidney HEK293T cells were maintained in DMEM (Gibco) supplemented with 10% fetal bovine serum (Hyclone), 2 mmol/L 1-glutamine, HEPES (Gibco) and 100 U/mL penicillin/streptomycin (Invitrogen). The lymphoma cell line HBL1 were maintained in RPMI (Life Technology) supplemented with 5% fetal bovine serum (Hyclone), 2 mmol/L L-glutamine, HEPES (Gibco) and 100 U/mL penicillin/streptomycin (Invitrogen).
Transfection and retroviral infections: Transfections were performed using Lipofectamine 2000 (Invitrogen) according to the manufacturer's protocol. For retroviral infections, viruses were produced in HEK293T cells and used to infect HBL1 cell line. […] Supernatants containing the retrovirus were collected and filtered at 48- and 72-hours post-transfection. HBL1 cells were centrifuged and then resuspended with the retroviral supernatant with 8 μg/ml of polybrene. The cells were spin-infected twice on consecutive days at 2,500 rpm, at RT, for 90 minutes.
Lytic HiBiT Detection: Cells were plated in solid white 1536-well tissue culture plates (Greiner), at the concentration of 2000 cells/well. After treatment, an equal volume of Nano-Glo HiBiT Lytic Reagent (Promega) containing the substrate furimazine and Large BiT (LgBiT) was added to the cells according to the manufacturer's protocol. Cells were incubated for 10 min at room temperature, and luminescence was measured using a Perkin Elmer ViewLux microplate imager with 30 seconds of exposure time.

[7] = target: T2, DHFR (Homo sapiens, UniProt P00374); type: cell-based; conditions: HBL1 cells, Western blot
T2 construct: Western blot detection of DHFR levels after treatment of HBL1 cells for 16 h; endogenous in cells; host or cells: HBL1 lymphoma cell line
T2 sequence (P00374 1-187): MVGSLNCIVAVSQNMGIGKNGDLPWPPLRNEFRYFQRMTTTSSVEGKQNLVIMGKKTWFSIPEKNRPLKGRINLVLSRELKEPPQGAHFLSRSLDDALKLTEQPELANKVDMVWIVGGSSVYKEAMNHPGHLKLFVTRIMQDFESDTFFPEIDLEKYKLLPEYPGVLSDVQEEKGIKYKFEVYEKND
Source text: Human embryonic kidney HEK293T cells and immortalized fibroblasts were maintained in DMEM (Gibco) supplemented with 10% fetal bovine serum (Hyclone), 2 mmol/L L-glutamine, Hepes (Gibco), and 100 U/mL penicillin/streptomycin (Invitrogen). The lymphoma cell line HBL1 was maintained in RPMI (Life Technology) supplemented with 5% fetal bovine serum (Hyclone), 2 mmol/L 1-glutamine, Hepes (Gibco), and 100 U/mL penicillin/streptomycin (Invitrogen).
Western blotting: Cells at confluence from 12-well plate treatments were washed with PBS and lysed in 75 μL/well NP40 lysis buffer (Cell Signaling), subjected to agitation and centrifugation. Approximately 100 μg of total protein was used per analysis. […] Blots were first incubated with 1:2000 dilution of anti-human DHFR antibody (Abcam, ab124814, host rabbit) for 16 h at 4° C. with shaking, washed 3× with TBS-T and incubated with 1:2000 dilution of anti-human β-actin primary antibody (Cell Signaling, host mouse) for 1 h at ambient temperature with shaking. Blots were then washed 3× with TBS-T and incubated with 1:5000 HRP secondary antibody (Novex, anti-Rabbit IgG raised in Goat, 1 mg/ml) for 1 h at ambient temperature, then washed with 3×TBS-T and developed with Pierce ECL Dura reagent for 5 min. Immunoreactive bands were imaged on a ChemiDoc Imaging System (Bio-Rad) with 20 s chemiluminescence exposure. The molecular weight marker ladder was imaged with colorimetric auto-exposure, and both images merged.

[8] = target: T3, thymidylate synthase (TS) (Homo sapiens, UniProt P04818); assay: Western blot of thymidylate synthase levels in fibroblasts; type: cell-based; conditions: 16 h
[9] = target: T2, DHFR; assay: Western blot detection of DHFR levels in 293T cells; type: cell-based; conditions: 16 h at 1 μM
Description: as §1
(§3) Western blotting: Cells at confluence from 12-well plate treatments were washed with PBS and lysed in 75 μL/well NP40 lysis buffer (Cell Signaling), subjected to agitation and centrifugation. Approximately 100 μg of total protein was used per analysis. Proteins were sized on a NuPAGE 12% Bis-Tris Gel, 1.0 mm×10 wells, proteins transferred to 0.2 μm nitrocellulose membrane for 60 min followed by blocking with 5% t milk in TBS-T for 1 h at ambient temperature with gentle shaking. […]

[10] = target: T2, DHFR; assay: Western blot detection of DHFR levels in fibroblasts; type: cell-based; conditions: 16 h at 1 μM
Description: as §1, §3

[11] = target: T3, thymidylate synthase (TS); assay: Western blot of thymidylate synthase levels in 293T cells; type: cell-based; conditions: 16 h
[12] = target: T3, thymidylate synthase (TS); assay: Western blot of thymidylate synthase levels in HBL1 cells; type: cell-based; design: Western blot detection of folate-cofactor dependent enzyme levels after treatment of HBL1 cells; endogenous in cells; host or cells: HBL1 lymphoma cell line; conditions: 1 μM, 16 h
[13] = HBL1 cell line, CellTiter-Glo, unit inferred

T3 sequence (P04818 2-313 limits assumed): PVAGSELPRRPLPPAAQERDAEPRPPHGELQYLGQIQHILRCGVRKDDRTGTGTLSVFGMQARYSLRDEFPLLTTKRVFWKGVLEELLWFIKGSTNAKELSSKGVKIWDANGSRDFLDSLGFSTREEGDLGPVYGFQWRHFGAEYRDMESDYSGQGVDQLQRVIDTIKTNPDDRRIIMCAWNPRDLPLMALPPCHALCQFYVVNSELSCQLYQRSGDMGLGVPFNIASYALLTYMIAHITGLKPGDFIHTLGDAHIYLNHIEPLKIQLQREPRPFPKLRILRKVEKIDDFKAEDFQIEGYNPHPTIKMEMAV

Dmax [6] | effect on DHFR protein levels [7] | effect on TS protein level [8] | effect on DHFR protein levels [10] | effect on TS protein level [11] | effect on TS protein level [12] | Structure (SMILES) | cellular toxicity in MTX-resistant HBL1 cell line [2] | IC50 [3, 13] | other results
– | essentially inactive | low but detectable increases in TS | significant degradation of DHFR | no significant change in TS levels | slight increase in TS | CN(Cc1cnc2nc(N)nc(N)c2n1)c1ccc(C(=O)N[C@@H](CCC(=O)NCCCNc2cccc3c2C(=O)N(C2CCC(=O)NC2=O)C3=O)C(=O)O)cc1 (stereo partly drawn) [NCGC00685938, N2-(4-(((2,4-diaminopteridin-6-yl)methyl)(methyl)amino)benzoyl)-N5-(3-((2-(2,6-dioxopiperidin-3-yl)-1,3-dioxoisoindolin-4-yl)amino)propyl)-L-glutamine] | – | 1660 nM | effect on DHFR protein levels [9]: essentially inactive
– | no alterations in DHFR protein levels | – | MTX-like stabilization of DHFR | – | – | Cc1ncsc1-c1ccc(CNC(=O)C2C[C@@H](O)CN2C(=O)C(NC(=O)COCCOCCNC(=O)CC[C@H](NC(=O)c2ccc(N(C)Cc3cnc4nc(N)nc(N)c4n3)cc2)C(=O)O)C(C)(C)C)cc1 (stereo partly drawn) [NCGC00685995, (17S)-17-(4-(((2,4-diaminopteridin-6-yl)methyl)(methyl)amino)benzamido)-3-((4R)-4-hydroxy-2-((4-(4-methylthiazol-5-yl)benzyl)carbamoyl)pyrrolidine-1-carbonyl)-2,2-dimethyl-5,14-dioxo-7,10-dioxa-4,13-diazaoctadecan-18-oic acid] | – | 20200 nM | effect on ATP levels ([4]; fibroblasts, CellTiter-Glo): not observed; effect on ATP levels ([5]; 293T cells, CellTiter-Glo): not observed
65% | robust DHFR depletion | low but detectable increases in TS | – | no significant change in TS levels | slight increase in TS | CN(Cc1cnc2nc(N)nc(N)c2n1)c1ccc(C(=O)N[C@@H](CCC(=O)NCCCCCCCCNc2cccc3c2C(=O)N(C2CCC(=O)NC2=O)C3=O)C(=O)O)cc1 (stereo partly drawn) [NCGC00685928, N2-(4-(((2,4-diaminopteridin-6-yl)methyl)(methyl)amino)benzoyl)-N5-(8-((2-(2,6-dioxopiperidin-3-yl)-1,3-dioxoisoindolin-4-yl)amino)octyl)-L-glutamine] | – | 23700 nM | –

More lines, now with the values behind:

Structure (SMILES) | Dmax [6] | effect on DHFR protein levels [7] | effect on TS protein level [8] | effect on DHFR protein levels [10] | effect on TS protein level [11] | effect on TS protein level [12] | cellular toxicity in MTX-resistant HBL1 cell line [2] | IC50 [3, 13] | other results
CN(Cc1cnc2nc(N)nc(N)c2n1)c1ccc(C(=O)N[C@@H](CCC(=O)O)C(=O)O)cc1 [MTX, (4-(((2,4-diaminopteridin-6-yl)methyl)(methyl)amino)benzoyl)-L-glutamic acid, reference compound] | – | – | – | – | – | – | greatly decreased | – | effect on cellular ATP levels (acute cellular toxicity) [1]: significantly depleted ATP levels; IC50 ([1]; HBL1, 16 h, read-out: IC50 for cellular ATP-depletion): ~200 nM; IC50 [3]: 57.1 nM; effect on ATP levels [4]: ATP-depleting properties; effect on ATP levels [5]: ATP-depleting properties
CN(Cc1cnc2nc(N)nc(N)c2n1)c1ccc(C(=O)NC(CC(F)C(=O)O)C(=O)O)cc1 (stereo not drawn) [FMTX, 2-(4-(((2,4-diaminopteridin-6-yl)methyl)(methyl)amino)benzamido)-4-fluoropentanedioic acid, reference compound] | -115% | – | – | – | – | – | greatly decreased | 1100 nM | DC50 ([6]; HBL1 cells expressing DHFR-HiBiT, 24 h, degradation or stabilization potency, average of N = 2-5, read-out: Ave EC50): 280 nM
Cc1ncsc1-c1ccc(CNC(=O)C2C[C@@H](O)CN2C(=O)C(NC(=O)COCCOCCOCCOCCNC(=O)CC[C@H](NC(=O)c2ccc(N(C)Cc3cnc4nc(N)nc(N)c4n3)cc2)C(=O)O)C(C)(C)C)cc1 (stereo partly drawn) [NCGC00685964, (23S)-23-(4-(((2,4-diaminopteridin-6-yl)methyl)(methyl)amino)benzamido)-3-((4R)-4-hydroxy-2-((4-(4-methylthiazol-5-yl)benzyl)carbamoyl)pyrrolidine-1-carbonyl)-2,2-dimethyl-5,20-dioxo-7,10,13,16-tetraoxa-4,19-diazatetracosan-24-oic acid] | – | no alterations in DHFR protein levels | – | – | – | – | – | 21500 nM | –
